Measurements taken from patent US6436946B1, “Xanthine-containing compositions for oral administration and uses related thereto” (priority 1997, dated 2002).

Legend:
subjects [1] = test: Stimulant effect: score in video game of skill (Pilot Wing); format: in vivo, human; conditions: five subjects, crossover with placebo, 180 mg caffeine, Formulation I
Method: Five subjects were tested over a period of three days. […] Both prior to and after consuming the composition, each subject played a video game of skill called Pilot Wing™ made by Nintendo™.

subjects [2] = test: Standard short-term memory test (repeat series of numbers backward); format: in vivo, human; conditions: three of the five subjects, 30 minutes after ingestion
Method: The test consisted of an examiner reading a series of numbers to the subject and the subject subsequently being asked to repeat said numbers backward. In all cases, the test was initiated 30 minutes after ingestion of the composition.

## Cn1c(=O)c2c(ncn2C)n(C)c1=O [caffeine]
Subjects [1]
  video game score after consuming the composition: higher scores after consuming the caffeine, compared to consuming the placebo
Subjects [2]
  digits repeated backwards without error: could not repeat this accomplishment
